US8575188B2 (priority 2009, dated 2013)
Like-named read-outs stand apart in the source and are kept apart here.

Tests used:
[1] = tested on: bone marrow progenitor cells; experiment: Bone marrow progenitor cell clonogenic assay (CFU-GM), mouse; details: for IC50: read-out: Mouse CFU-GM (IC50 nM) THLD
Procedure: (§1) A clonogenic assay was performed using bone marrow progenitor cells derived from the blood of mice and humans.

[2] = tested on: bone marrow progenitor cells; experiment: Bone marrow progenitor cell clonogenic assay (CFU-GM), human; details: for IC50: read-out: Human CFU-GM (IC50 nM) THLD
Procedure: as §1

[3] = Bone marrow progenitor cell clonogenic assay (CFU-GM), mouse; details: mouse
Procedure: as §1

[4] = tested on: human non small cell lung cancer cell line H460; experiment: Antiproliferation (cytotoxicity) assay, 72 hrs under air, Alamar Blue; assay type: cell-based; details: read-out: IC50
[5] = Bone marrow progenitor cell clonogenic assay (CFU-GM), human; details: human
Procedure: as §1

[6] = tested on: human non small cell lung cancer H-460; experiment: Xenograft model, subcutaneous, tumor growth inhibition and body weight loss; details: for TGI (%): H460, PO, QD × 5/wk, 2 weeks; for Max. BWL (%): mouse, in vivo, po
Procedure: (§2) The first three models were produced by subcutaneous implantation of the appropriate number of cells into the flank of the animals. When tumor size was approximately 150 mm^3, animals were randomized into groups of 10 mice each for dosing. One arm was dosed with only vehicle and the results used for the efficacy calculations. […] TGI=(1−T/C) %. T/C ratio was calculated as T/C=(Tn−Ti)/(Cn−Ci), where Tn is tumor volume in treatment group on Day n, and Ti is the initial tumor volume in the treatment group. Cn is the tumor volume of the vehicle group on the last day of measurement. Ci is the initial tumor volume in the vehicle control group. Day n is the last measurement taken when all the animals in the vehicle group were not yet euthanized. Animals were euthanized when tumor volumes grew larger than 2000 mm^3.

[7] = tested on: human prostate cancer PC-3; experiment: as above; details: for TGI (%): PC3, PO, QD × 5/wk, 2 weeks; for Max. BWL (%): mouse, in vivo, po
Procedure: as §2

[8] = tested on: Messa ovarian carcinoma cell line; experiment: Efflux pump drug resistance, antiproliferation assay, parent line; assay type: cell-based; details: Homo sapiens, MES-SA, air
Procedure: […] Cells were treated with test compounds at various concentrations under air for 72 hrs, and then cell viability and proliferation were assessed by Alamar Blue staining.
(§3) Cellular drug resistance was determined using the antiproliferation assay described above.

[9] = tested on: BCRP, which over expressed the breast cancer resistance protein; experiment: Efflux pump drug resistance, antiproliferation assay, BCRP over expressing line; details: for 3d BCRP/pcDNA / 5d BCRP/pcDNA: ratio of IC50s, BCRP over expressing versus parent line; for 3d BCRP/pcDNA: 3 days; for 5d BCRP/pcDNA: 5 days
Procedure: (§4) The compounds were screened for cytotoxicity using human non small cell lung cancer cell line H460. […]
as §3

[10] = tested on: pcDNA; experiment: Efflux pump drug resistance, antiproliferation assay, parent line; assay type: cell-based; details: air
Procedure: as §4, §3

[11] = tested on: H69 small cell lung cancer line; experiment: as above; assay type: cell-based; details: air
Procedure: as §4, §3

[12] = tested on: DX5, which over expresses the MDR 1 efflux pump; experiment: Efflux pump drug resistance, antiproliferation assay, MDR 1 over expressing line; assay type: cell-based; details: air
Procedure: as §4, §3

[13] = tested on: MRP1 over expressing H69AR line; experiment: Efflux pump drug resistance, antiproliferation assay, MRP1 over expressing line; assay type: cell-based; details: Homo sapiens, air
Procedure: as §4, §3

[14] = tested on: human colon cancer HT-29; experiment: Xenograft model, subcutaneous, tumor growth inhibition and body weight loss; details: for TGI (%): HT29, PO, QD × 5/wk; for Max. BWL (%): mouse, in vivo, po
Procedure: as §2

[15] = In vivo pharmacokinetics, oral gavage; details: CD, mouse, in vivo, po; for AUC / Cmax: 50 mg/kg
Procedure: The data normalized to a 50 mg/kg dose are shown below (compounds were dosed at either 25 or 50 mg/kg).

[16] = tested on: IGROV1 human ovarian cancer cells; experiment: Xenograft model of metastatic ovarian cancer (i.p.), survival; details: IGROV1 i.p., median survival treated / vehicle times 100; PO, QD × 5/wk, 4 weeks, 150 mg/Kg
Procedure: One arm was dosed with only vehicle and the results used for the efficacy calculations. […] A xenograft model of metastatic ovarian cancer was set up by the intraperitoneal (i.p) injection of 3×10^6 IGROV1 human ovarian cancer cells in nude mice. Mice were evaluated twice a week for morbidity and mortality. Kaplan-Meier survival curves were plotted.

[17] = tested on: H46O cells; experiment: Selective hypoxic activation of 14-nitro prodrugs in cell culture; assay type: cell-based, human; details: TH1332 at 5 micromolar, 24 hour
Procedure: H46O cells were grown to a confluent monolayer and then the 14-nitro TH1332 prodrug was added to the media at 5 micromolar concentration. Incubations were done for 24 hour either under air or nitrogen (hypoxia), media and cells were recovered, sonicated and soluble extracts were isolated by acetonitrile precipitation of proteins. The level of amino TH1338 active cytotoxin were quantitated by liquid chromotagraphy mass spectra analysis. The equivalent of 70 nanomolar TH1338 was produced under hypoxia with undetectable levels being produced under air (less than 5 nanomolar).
The analogous experiment was preformed using 1 micromolar concentration of the 14-nitro derivative TH1431. After 24 hr, 180 nanomolar of the 14 amino TH1499 was produced under nitrogen with undetectable levels produced under air (less than 5 nanomolar).

[18] = Brain penetration, AUC in brain versus AUC plasma; details: mouse
Procedure: Certain compounds of the invention were assessed for brain penetration by comparing the AUC for plasma exposure versus the AUC in brain.

[19] = tested on: human ovarian cancer cell line IGROV-1; experiment: Antiproliferation assay, 72 hrs under air, Alamar Blue; assay type: cell-based
[20] = tested on: human melanoma cell line MAMLE-3M; experiment: as above; assay type: cell-based
[21] = tested on: human prostate cancer cell line PC-3; experiment: as above; assay type: cell-based; details: read-out: PC3 IC50
[22] = tested on: human melanoma cell line A375; experiment: as above; assay type: cell-based
[23] = tested on: human colon cancer cell line HT-29; experiment: as above; assay type: cell-based; details: read-out: HT29 IC50
[24] = tested on: human melanoma cell line SKMEL-28; experiment: as above; assay type: cell-based
[25] = tested on: human melanoma cell line SKMEL2; experiment: as above; assay type: cell-based; details: read-out: SKMEL-2 IC50
[26] = tested on: human prostate cancer cell line LNCap; experiment: as above; assay type: cell-based
[27] = tested on: human prostate cancer cell line DU145; experiment: as above; assay type: cell-based
[28] = Homo sapiens, NCI-H460, H460, inhibition of proliferation, 72 hrs under air
[29] = 72 h, 3 days, read-out: Air 3d MESSA prol. IC50
[30] = 72 h, read-out: Air 3d BCRP prol. IC50 nM, air, 3 days
[31] = 72 h, 3 days, read-out: Air 3d pcDNA prol. IC50
[32] = 72 h, 3 days, read-out: Air 3d H69 prol. IC50
[33] = MDR1, 72 h, 3 days, read-out: Air 3d DX5 prol. IC50
[34] = 72 h, 3 days, read-out: Air 3d H69ar (MRP1) prol. IC50
[35] = 120 h, 5 days, read-out: Air 5d MESSA prol. IC50
[36] = 120 h, read-out: Air 5d BCRP prol. IC50 nM, air, 5 days
[37] = 120 h, 5 days, read-out: Air 5d pcDNA prol. IC50
[38] = 120 h, 5 days, read-out: Air 5d H69 prol. IC50
[39] = MDR1, 120 h, 5 days, read-out: Air 5d DX5 prol. IC50
[40] = 120 h, 5 days, read-out: Air 5d H69ar (MRP1) prol. IC50

| SMILES | IC50 ([1]; Mus musculus, CFU-GM) [nM] | IC90 [3] [nM] | IC50 [4, 28] [nM] | IC50 ([2]; Homo sapiens, CFU-GM) [nM] | IC90 [5] [nM] | IC50 [8, 29] [nM] | IC50 [9, 30] [nM] | 3d BCRP/pcDNA [9] | IC50 [10, 31] [nM] | IC50 [11, 32] [nM] | IC50 [12, 33] [nM] | IC50 [13, 34] [nM] | IC50 [8, 35] [nM] | IC50 [11, 38] [nM] | IC50 [12, 39] [nM] | IC50 [13, 40] [nM] | half-life [15] [min] | AUC [15] [ng·h/mL] | Cmax [15] [ng/mL] | also measured |
| --- | --- | --- | --- | --- | --- | --- | --- | --- | --- | --- | --- | --- | --- | --- | --- | --- | --- | --- | --- | --- |
| CC[C@@]1(O)C(=O)OCc2c1cc1n(c2=O)Cc2cc3c(N)cccc3nc2-1 [9-amino camptothecin, reference compound] | – | – | – | – | – | – | – | – | – | – | – | – | – | – | – | – | – | – | – | IC50 ([1]; mouse bone marrow progenitor cells, clonogenic assay): 90 nM; IC90 ([1]; read-out: Mouse CFU-GM (IC90 nM) THLD, IC90, mouse bone marrow progenitor cells, clonogenic assay): 700 nM; IC50 ([2]; human bone marrow progenitor cells, clonogenic assay): 1.2 nM; IC90 ([2]; read-out: Human CFU-GM (IC90 nM) THLD, IC90, human bone marrow progenitor cells, clonogenic assay): 8 nM |
| CC[C@@]1(O)C(=O)OCc2c1c(NC=O)c1n(c2=O)Cc2cc3ccccc3nc2-1 [TH1589] | 920 | 6200 | 59 | 110 | 680 | – | – | – | – | – | – | – | – | – | – | – | – | – | – | TGI (%) ([6]; 30 mg/Kg): 76%; Max. BWL (%) ([6]; 30 mg/kg): 10.4%; TGI (%) ([7]; 40 mg/Kg): 80%; Max. BWL (%) ([7]; 40 mg/kg): 0.1% |
| CC[C@@]1(O)C(=O)OCc2c1c(N)c1n(c2=O)Cc2c-1nc1ccccc1c2/C=N/OC(C)(C)C [TH1499] | – | – | 19 | – | – | 9 | 3.4 | 1.0625 | 3.2 | 217 | 5 | 463 | – | – | – | – | – | – | – | TGI (%) ([14]; 2 weeks, 25 mg/Kg): 4.7%; Max. BWL (%) ([14]; 25 mg/kg): 1.8% |
| CC[C@@]1(O)C(=O)OCc2c1c([N+](=O)[O-])c1n(c2=O)Cc2cc3ccccc3nc2-1 [TH1317] | – | – | > 1000 | – | – | – | – | – | – | – | – | – | > 500 | 933 | > 500 | 1320 | – | – | – | IC50 [9, 36]: 82 nM; 5d BCRP/pcDNA [9]: 1.4386; IC50 [10, 37]: 57 nM |
| CC[C@@]1(O)C(=O)OCc2c1c(N)c1n(c2=O)Cc2cc3c(N)cccc3nc2-1 [TH1386] | 680 | 3500 | 71 | 30 | 210 | 52 | 26.6 | 4.75 | 5.6 | 141 | 28 | 195 | – | – | – | – | 25.6 | 3100 | 5860 | – |
| CCc1c2c(nc3ccccc13)-c1c([N+](=O)[O-])c3c(c(=O)n1C2)COC(=O)[C@]3(O)CC [TH1332] | > 10000 | > 10000 | 66 | > 1000 | > 100 | 5300 | 2300 | 1.3 | 1800 | – | 6300 | – | 2330 | 4220 | 2740 | 8710 | 375 | 1820 | 380 | T/C [16]: 159; IC50 [9, 36]: 21 nM; 5d BCRP/pcDNA [9]: 0.875; IC50 [10, 37]: 24 nM; TGI (%) ([14]; 4 weeks, 150 mg/Kg): 62.8%; Max. BWL (%) ([14]; 150 mg/kg): 0%; TGI (%) ([6]; 150 mg/Kg): 91.4%; Max. BWL (%) ([6]; 150 mg/kg): 11.4%; TGI (%) ([7]; 150 mg/Kg): 103%; Max. BWL (%) ([7]; 150 mg/kg): 1.8%; TH1338 produced under air ([17]; air, undetectable levels): less than 5 nanomolar; TH1338 produced under hypoxia ([17]; nitrogen (hypoxia), LC-MS): 70 nM; Kp [18]: 0.18 |
| CCc1c2c(nc3ccc(O)cc13)-c1cc3c(c(=O)n1C2)COC(=O)[C@]3(O)CC [SN-38, reference compound] | – | – | – | – | – | – | – | – | – | – | – | – | – | – | – | – | – | – | – | IC50 [19]: 30 nM; IC50 [20]: 200 nM; IC50 [21]: 4 nM; ratio BCRP over expressing line versus the parent cell line ([9]; not told): > 220; IC50 [22]: 4 nM; IC50 [23]: 224 nM; IC50 [24]: 10000 nM; IC50 [25]: 100 nM; IC50 [1]: 110 nM; IC50 [4]: 54 nM; IC50 [26]: 9 nM; IC50 [2]: 1.3 nM; IC50 [27]: 4 nM |
| CCCc1c2c(nc3ccccc13)-c1c(N)c3c(c(=O)n1C2)COC(=O)[C@]3(O)CC [TH1651] | – | – | 6.2 | – | – | – | – | – | – | – | – | – | – | – | – | – | – | – | – | TGI (%) ([6]; 40 mg/Kg): 80%; Max. BWL (%) ([6]; 40 mg/kg): 5.5%; TGI (%) ([7]; 40 mg/Kg): 80%; Max. BWL (%) ([7]; 40 mg/kg): 4.8% |
| CC[C@@]1(O)C(=O)OCc2c1c([N+](=O)[O-])c1n(c2=O)Cc2c-1nc1ccccc1c2C [TH1446] | – | – | 850 | – | – | – | 2740 | 4.777 | 574 | – | – | – | 4450 | 2740 | 4960 | 8510 | 35.4 | 4280 | 5100 | TGI (%) ([14]; 2 weeks, 40 mg/Kg): 29.5%; Max. BWL (%) ([14]; 40 mg/kg): 1.1% |
| CCc1c2c(nc3ccccc13)-c1c(NC=O)c3c(c(=O)n1C2)COC(=O)[C@]3(O)CC [TH1408] | 700 | 5000 | 66 | 90 | 650 | 81 | 7.3 | 0.7684 | 9.5 | 242 | 40 | 285 | – | – | – | – | 48.3 | 8430 | 6070 | – |
